Consider 31 compounds from patent US9902701B2, “Pyridazones and triazinones for treatment and prophylaxis of hepatitis B virus infection” (priority 2014, dated 2018).

The subject of this assay is HBsAg. Kind of assay: HBsAg assay: chemiluminescence immunoassay (CLIA) of secreted HBsAg in supernatant of HepG2.2.15 cells. Particulars: Hepatitis B virus. It is filed as cell-based, HBV. The method, then:
HepG2.2.15 cells (Acs et al. Proc Natl Acad Sci USA, 84, (1987), 4641-4), a constitutively HBV-expressing cell line were cultured in DMEM+Glutamax-I medium (Invitrogen, Carlsbad, Calif., USA), supplemented with 10% fetal bovine serum (Invitrogen) and G418 (Invitrogen) at a final concentration of 200 mg/L and maintained in 5% CO2 at 37° C.
HepG2.2.15 cells were seeded in duplicate into white, 96-well plates at 1.5×10^4 cells/well. The cells were treated with a three-fold serial dilution series of the compounds in DMSO. The final DMSO concentration in all wells was 1% and DMSO was used as no drug control.
The HBsAg chemiluminescence immunoassay (CLIA) kit (Autobio Diagnostics Co., Zhengzhou, China, Catalog number: CL0310-2) was used to measure the levels of secreted HBV antigens semi-quantitatively. For the detection 50 μL/well culture supernatant was used and HBsAg was quantified using HBsAg chemiluminescence immunoassay (CLIA) kit (Autobio Diagnostics Co., Zhengzhou, China, Catalog number: CL0310-2), 50 μL of the supernatant was transferred to the CLIA assay plate and 50 μL of enzyme conjugate reagent was added into each well. The plates were sealed and gently agitated for 1 hour at room temperature. The supernatant-enzyme-mixture was discarded and wells were washed 6 times with 300 μL of PBS. The residual liquid was removed by plating the CLIA plate […] on absorbent tissue paper. 25 μL of substrates A and B were added to each well. Luminance was measured using a luminometer (Mithras LB 940 Multimode Microplate Reader) after 10 minutes incubation. Dose-response curves were generated and the IC50 value was extrapolated by using the E-WorkBook Suite (ID Business Solutions Ltd., Guildford, UK). The IC50 was defined as the compound concentration (or conditioned media log dilution) at which HBsAg secretion was reduced by 50% compared to the no drug control.
By IC50 is commonly meant the concentration that inhibits the measured activity by half. Low readings indicate greater potency in that assay, high ones weaker potency in that assay. In turn, `CN(C(=O)CN1N=C(c2ccc(Cl)cc2)CCC1=O)c1ccc(C#N)cc1` [Example 1-10, 2-[3-(4-Chlorophenyl)-6-oxo-4,5-dihydropyridazin-1-yl]-N-(4-cyanophenyl)-N-methyl-acetamide] yielded an IC50 of 5.63 µM.
To `CN(C(=O)CN1N=C(c2ccc(F)c(F)c2)CCC1=O)c1ccc(C(F)(F)F)cc1` [Example 1-53, 2-[3-(3,4-Difluorophenyl)-6-oxo-4,5-dihydropyridazin-1-yl]-N-methyl-N-[4-(trifluoromethyl)phenyl]acetamide] belongs 0.86 µM; to `CN(C(=O)CN1N=C(c2ccc(Br)cc2)CCC1=O)c1ccccc1` [Example 1-49, 2-[3-(4-Bromophenyl)-6-oxo-4,5-dihydropyridazin-1-yl]-N-methyl-N-phenyl-acetamide], 3.87 µM; to `CN(C(=O)Cn1nc(-c2ccc(Cl)c(F)c2)ccc1=O)c1ccc(C(F)(F)F)cc1` [Example 2-2, 2-[3-(4-Chloro-3-fluorophenyl)-6-oxo-pyridazin-1-yl]-N-methyl-N-[4-(trifluoromethyl)phenyl]acetamide], 0.52 µM.
Regarding `CN(C(=O)CN1N=C(c2ccc(Cl)cc2)CCC1=O)c1ccc(C(=O)NC2CCCCC2)cc1` [Example 1-15, 4-[[2-[3-(4-Chlorophenyl)-6-oxo-4,5-dihydropyridazin-1-yl]acetyl]-methyl-amino]-N-cyclohexyl-benzamide], the IC50 is 5.24 µM.
To `CN(C(=O)CN1N=C(c2ccc(Cl)c(Cl)c2)CCC1=O)c1ccc(C(F)(F)F)cc1` [Example 1-45, 2-[3-(3,4-Dichlorophenyl)-6-oxo-4,5-dihydropyridazin-1-yl]-N-methyl-N-[4-(trifluoromethyl)phenyl]acetamide] belongs 0.23 µM; to `Cc1cc(Cl)ccc1C1=NN(CC(=O)N(C)c2cccc(F)c2)C(=O)CC1` [Example 1-28, 2-[3-(4-Chloro-2-methyl-phenyl)-6-oxo-4,5-dihydropyridazin-1-yl]-N-(3-fluorophenyl)-N-methyl-acetamide], 4.59 µM; to `CN(C(=O)CN1N=C(c2ccc(Cl)cc2)CCC1=O)c1ccc(C(F)(F)F)c(F)c1` [Example 1-3, 2-[3-(4-Chlorophenyl)-6-oxo-4,5-dihydropyridazin-1-yl]-N-[3-fluoro-4-(trifluoromethyl)phenyl]-N-methyl-acetamide], 0.301 µM.
The result for `CN(C(=O)CN1N=C(c2ccc(F)cc2)CCC1=O)c1ccccc1` [Example 1-47, 2-[3-(4-Fluorophenyl)-6-oxo-4,5-dihydropyridazin-1-yl]-N-methyl-N-phenyl-acetamide] reads 8.93 µM; that for `Cc1cc(C2=NN(CC(=O)N(C)c3ccc(C(F)(F)F)cc3)C(=O)CC2)ccc1F` [Example 1-36, 2-[3-(4-Fluoro-3-methyl-phenyl)-6-oxo-4,5-dihydropyridazin-1-yl]-N-methyl-N-[4-(trifluoromethyl)phenyl]acetamide], 3.1 µM; that for `CN(C(=O)CN1N=C(c2ccc(C(F)(F)F)cc2)CCC1=O)c1ccc(Cl)cc1` [Example 1-44, N-(4-Chlorophenyl)-N-methyl-2-[6-oxo-3-[4-(trifluoromethyl)phenyl]-4,5-dihydropyridazin-1-yl]acetamide], 0.96 µM.
Take `CN(C(=O)CN1N=C(c2ccc(Cl)cc2)CNC1=O)c1ccc(C(F)(F)F)cc1` [Example 3-1, 2-[6-(4-Chlorophenyl)-3-oxo-4,5-dihydro-1,2,4-triazin-2-yl]-N-methyl-N-[4-(trifluoromethyl)phenyl]acetamide]: half-maximal inhibition (IC50) required 10.3 µM.
As for `CN(C(=O)CN1N=C(c2ccc(Cl)cc2)CCC1=O)c1ccc(F)cc1` [Example 1-6, 2-[3-(4-Chlorophenyl)-6-oxo-4,5-dihydropyridazin-1-yl]-N-(4-fluorophenyl)-N-methyl-acetamide], the IC50 came to 3.63 µM.
To `CN(C(=O)CN1N=C(c2ccc(Br)cc2)CCC1=O)c1ccc(C(F)(F)F)cc1` [Example 1-51, 2-[3-(4-Bromophenyl)-6-oxo-4,5-dihydropyridazin-1-yl]-N-methyl-N-[4-(trifluoromethyl)phenyl]acetamide] belongs 1.16 µM; to `CN(C(=O)CN1N=C(c2ccc(Cl)c(F)c2)CCC1=O)c1ccc(F)cc1` [Example 1-22, 2-[3-(4-Chloro-3-fluoro-phenyl)-6-oxo-4,5-dihydropyridazin-1-yl]-N-(4-fluorophenyl)-N-methyl-acetamide], 0.94 µM.
For `CN(C(=O)Cn1nc(-c2c(F)cccc2Cl)ccc1=O)c1ccc(C(F)(F)F)cc1` [Example 2-4, 2-[3-(2-Chloro-6-fluoro-phenyl)-6-oxo-pyridazin-1-yl]-N-methyl-N-[4-(trifluoromethyl)phenyl]acetamide], half-maximal inhibition (IC50) required 4.76 µM.
To `CN(C(=O)CN1N=C(c2ccc(F)cc2)CCC1=O)c1ccc(Cl)cc1` [Example 1-48, N-(4-Chlorophenyl)-2-[3-(4-fluorophenyl)-6-oxo-4,5-dihydropyridazin-1-yl]-N-methyl-acetamide] belongs 1.88 µM; to `Cc1ccc(C2=NN(CC(=O)N(C)c3ccc(Cl)cc3)C(=O)CC2)cc1` [Example 1-56, N-(4-Chlorophenyl)-N-methyl-2-[6-oxo-3-(p-tolyl)-4,5-dihydropyridazin-1-yl]acetamide], 9.51 µM; to `CN(C(=O)CN1N=C(c2ccc(Cl)cc2)CCC1=O)c1cccc(C(F)(F)F)c1` [Example 1-19, 2-[3-(4-Chlorophenyl)-6-oxo-4,5-dihydropyridazin-1-yl]-N-methyl-N-[3-(trifluoromethyl)phenyl]acetamide], 1 µM.
To `COC(=O)c1ccc(N(C)C(=O)CN2N=C(c3ccc(Cl)cc3)CCC2=O)cc1` [Example 1-11, Methyl 4-[[2-[3-(4-chlorophenyl)-6-oxo-4,5-dihydropyridazin-1-yl]acetyl]-methyl-amino]benzoate] belongs 8.74 µM; to `Cc1ccc(N(C)C(=O)CN2N=C(c3ccc(Cl)cc3)CCC2=O)cc1` [Example 1-7, 2-[3-(4-Chlorophenyl)-6-oxo-4,5-dihydropyridazin-1-yl]-N-methyl-N-(p-tolyl)acetamide], 2.49 µM; to `CN(C(=O)CN1N=C(c2ccc(Cl)cc2)CCC1=O)c1cccc(F)c1` [Example 1-17, 2-[3-(4-Chlorophenyl)-6-oxo-4,5-dihydropyridazin-1-yl]-N-(3-fluorophenyl)-N-methyl-acetamide], 1.17 µM.
The compound `CN(C(=O)CN1N=C(c2ccc(Cl)cc2)CCC1=O)c1ccc(Cl)c(F)c1` [Example 1-4, N-(4-Chloro-3-fluoro-phenyl)-2-[3-(4-chlorophenyl)-6-oxo-4,5-dihydropyridazin-1-yl]-N-methyl-acetamide] gave an IC50 of 0.994 µM.
Regarding `CN(C(=O)CN1N=C(c2ccc(C(F)(F)F)cc2)CCC1=O)c1cccc(C(F)(F)F)c1` [Example 1-41, N-Methyl-2-[6-oxo-3-[4-(trifluoromethyl)phenyl]-4,5-dihydropyridazin-1-yl]-N-[3-(trifluoromethyl)phenyl]acetamide], half-maximal inhibition (IC50) was put at 0.25 µM.
The result for `CN(C(=O)CN1N=C(c2ccc(C#N)cc2)CCC1=O)c1ccc(Cl)cc1` [Example 1-55, N-(4-Chlorophenyl)-2-[3-(4-cyanophenyl)-6-oxo-4,5-dihydropyridazin-1-yl]-N-methyl-acetamide] reads 3.82 µM; that for `CN(C(=O)CN1N=C(c2ccc(Cl)c(Cl)c2)CCC1=O)c1ccc(Cl)cc1` [Example 1-46, N-(4-Chlorophenyl)-2-[3-(3,4-dichlorophenyl)-6-oxo-4,5-dihydropyridazin-1-yl]-N-methyl-acetamide], 0.42 µM; that for `CN(C(=O)Cn1nc(-c2ccc(Cl)cc2)ccc1=O)c1ccc(Cl)cc1` [Example 2-5, N-(4-Chlorophenyl)-2-[3-(4-chlorophenyl)-6-oxo-pyridazin-1-yl]-N-methyl-acetamide], 1.77 µM.
For `Cc1cc(Cl)ccc1C1=NN(CC(=O)N(C)c2ccc(Cl)cc2)C(=O)CC1` [Example 1-26, 2-[3-(4-Chloro-2-methylphenyl)-6-oxo-4,5-dihydropyridazin-1-yl]-N-(4-chlorophenyl)-N-methyl-acetamide], the IC50 amounted to 1.88 µM.
The compound `CN(C(=O)CN1N=C(c2ccc(C(F)(F)F)cc2)CCC1=O)c1cccc(Cl)c1` [Example 1-39, N-(3-Chlorophenyl)-N-methyl-2-[6-oxo-3-[4-(trifluoromethyl)phenyl]-4,5-dihydropyridazin-1-yl]acetamide] displayed an IC50 of 0.369 µM.
Take `CN(C(=O)CN1N=C(c2ccc(C(F)(F)F)cc2)CCC1=O)c1cccc(F)c1` [Example 1-42, N-(3-Fluorophenyl)-N-methyl-2-[6-oxo-3-[4-(trifluoromethyl)phenyl]-4,5-dihydropyridazin-1-yl]acetamide]: it took 0.52 µM to reach half-maximal inhibition (IC50).
Regarding `CN(C(=O)CN1N=C(c2ccc(F)cc2F)CCC1=O)c1ccc(Cl)cc1` [Example 1-33, N-(4-Chlorophenyl)-2-[3-(2,4-difluorophenyl)-6-oxo-4,5-dihydropyridazin-1-yl]-N-methyl-acetamide], the IC50 was determined as 0.85 µM.
